pIC50: −log10 of the molar value.

This experiment in a line: Inhibition of 5-lipoxygenase in human whole blood.
For `OC(c1cccc(OCc2ccc3ccccc3c2)c1)c1nccs1` (stereo not drawn), the pIC50 (commonly −log10 of the IC50, conventionally taken in molar units) is 5.29.
`Cc1cnc(C(O)c2cccc(OCc3ccc(-c4ccccc4)cc3)c2)[nH]1` (stereo not drawn) gave a pIC50 of 5.15.
In turn, `CCCCCCCCCCOc1cccc(C(O)c2ncc(C)[nH]2)c1` (stereo not drawn) had a pIC50 of 5.20.

The values above are taken from BindingDB's records for doi:10.1021/jm00111a038 (Ici Pharmaceuticals Group, 1991).
